This is an account of results in ChEMBL document CHEMBL5729069, “4,6 dihydropyrrolo [3,4-C] pyrazole-5 (1H)-carbonitrile derivates for treating cancer” (2022).

In the assay the target is Ubiquitin carboxyl-terminal hydrolase 7 (Homo sapiens, UniProt Q93009). Put plainly: Biochemical Assay: Dilution plates were prepared at 21 times the final concentration (2100 μM for a final concentration of 100 μM) in 50% DMSO in a 96-well polypropylene V-bottom plate (Greiner #651201). A typical 8-point dilution series would be 100, 30, 10, 3, 1, 0.3, 0.1, 0.03 μM final. Reactions were performed in duplicate in black 384 well plates (small volume, Greiner 784076) in a final reaction volume of 21 μl. Either 1 μl of 50% DMSO or diluted compound was added to the plate. USP7 was diluted in reaction buffer (20 mM Tris, pH 7.5, 100 mM NaCl, 0.05% Tween 20, 0.5 mg/ml BSA, 5 mM—beta mercaptoethanol) to the equivalent of 0.0025 μl/well and 10 μl of diluted USP7 was added to the compound. Enzyme and compound were incubated for 30 min at room temp. Reactions were initiated by the addition of 50 nM of TAMRA labelled peptide linked to ubiquitin via an iso-peptide bond as fluorescence polarisation substrate. Reactions were read immediately after addition of substrate and following a 2 hr incubation at room temperature. Readings were performed on a Pherastar Plus (BMG Labtech). λ Excitation 540 nm; λ Emission 590 nm. Background: In fluorescence polarisation assays a small probe gives low polarisation when free and higher when bound to something large.
Chain of Ubiquitin carboxyl-terminal hydrolase 7 (Q93009 whole entry): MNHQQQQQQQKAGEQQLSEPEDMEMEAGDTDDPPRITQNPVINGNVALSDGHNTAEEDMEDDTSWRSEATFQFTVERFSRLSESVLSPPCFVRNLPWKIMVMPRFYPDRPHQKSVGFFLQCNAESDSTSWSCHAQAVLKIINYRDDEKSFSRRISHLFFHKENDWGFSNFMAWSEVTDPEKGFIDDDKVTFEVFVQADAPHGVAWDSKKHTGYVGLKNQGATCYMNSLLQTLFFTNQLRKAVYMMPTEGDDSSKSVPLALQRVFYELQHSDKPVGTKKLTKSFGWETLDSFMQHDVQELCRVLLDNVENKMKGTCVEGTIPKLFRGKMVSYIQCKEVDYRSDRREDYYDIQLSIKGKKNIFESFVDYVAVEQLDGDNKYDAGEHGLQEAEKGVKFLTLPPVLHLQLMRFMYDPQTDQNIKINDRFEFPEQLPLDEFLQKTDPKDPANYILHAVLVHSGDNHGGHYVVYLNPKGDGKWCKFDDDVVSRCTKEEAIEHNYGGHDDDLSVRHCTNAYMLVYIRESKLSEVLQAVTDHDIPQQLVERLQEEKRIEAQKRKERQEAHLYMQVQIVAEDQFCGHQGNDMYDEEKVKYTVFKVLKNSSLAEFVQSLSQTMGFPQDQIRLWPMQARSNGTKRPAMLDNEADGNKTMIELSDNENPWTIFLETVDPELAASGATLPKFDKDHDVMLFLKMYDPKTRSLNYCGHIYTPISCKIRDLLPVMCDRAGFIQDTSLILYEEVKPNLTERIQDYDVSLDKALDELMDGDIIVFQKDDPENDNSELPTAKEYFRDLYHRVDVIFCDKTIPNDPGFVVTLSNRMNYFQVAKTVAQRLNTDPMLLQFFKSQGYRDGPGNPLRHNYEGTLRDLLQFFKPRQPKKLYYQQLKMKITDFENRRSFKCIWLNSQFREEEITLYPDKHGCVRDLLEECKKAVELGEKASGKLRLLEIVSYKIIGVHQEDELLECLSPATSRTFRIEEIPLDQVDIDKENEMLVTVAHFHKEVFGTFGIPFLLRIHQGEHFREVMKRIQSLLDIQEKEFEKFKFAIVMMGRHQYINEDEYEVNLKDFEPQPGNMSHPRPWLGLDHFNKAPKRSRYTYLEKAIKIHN

As for `N#CN1Cc2[nH]nc(-c3cccc(N4CCCC4=O)c3)c2C1`, the concentration for half-maximal inhibition (IC50) was less than 10 µM.

Regarding `N#CN1Cc2[nH]nc(-c3cccc(N4CCOC4=O)c3)c2C1`, the half-maximal inhibitory concentration (IC50) was less than 10 µM.

A word on the IC50: it is the concentration that inhibits the measured activity by half.
